Measurements from US9247741B2, “Use of macrocyclic picolinamides as fungicides” (DOW AGROSCIENCES LLC, priority 2013, dated 2016).
Like-named read-outs stand apart in the source and are kept apart here.

Key:
[1] = test system: Mycosphaerella graminicola; Anamorph: Septoria tritici; test: Leaf blotch of wheat (SEPTTR) disease control on wheat seedlings; format: in vivo; conditions: Zymoseptoria tritici; for pest or weed control at 121.5 g/ha: 121.5 g/H (low volume track spray)
Protocol: Evaluation of Fungicidal Activity: Leaf Blotch of Wheat (Mycosphaerella graminicola; Anamorph: Septoria tritici; Bayer Code […]) Technical grades of materials were dissolved in acetone, which were then mixed with nine volumes of water containing 110 ppm Triton X-100. The fungicide solutions were applied onto wheat seedlings using an automated booth sprayer to run-off. All sprayed plants were allowed to air dry prior to further handling. All fungicides were evaluated using the aforementioned method for their activity vs. all target diseases. Wheat leaf blotch and brown rust activity were also evaluated using track spray applications, in which case the fungicides were formulated as EC formulations, containing 0.1% Trycol 5941 in the spray solutions. Wheat plants (variety Yuma) were grown from seed in a greenhouse in 50% mineral soil/50% soil-less Metro mix until the first leaf was fully emerged, with 7-10 seedlings per pot. These plants were inoculated with an aqueous spore suspension of Septoria tritici either prior to or after fungicide treatments. After inoculation the plants were kept in 100% relative humidity (one day in a dark dew chamber followed by two to three days in a lighted dew chamber at 20° C.) to permit spores to germinate and infect the leaf. The plants were then transferred to a greenhouse set at 20° C. for disease to develop. When disease symptoms were fully expressed on the l^st leaves of untreated plants, infection levels were assessed on a scale of 0 to 100 percent disease severity. Percent disease control was calculated using the ratio of disease severity on treated plants relative to untreated plants.

[2] = test system: Puccinia triticina; test: Wheat brown rust (PUCCRT) disease control on wheat seedlings; format: in vivo; conditions: for pest or weed control at 100 ppm: 100 ppm (high volume); for pest or weed control at 121.5 g/ha: 121.5 g/H (low volume track spray)
Protocol: Technical grades of materials were dissolved in acetone, which were then mixed with nine volumes of water containing 110 ppm Triton X-100. The fungicide solutions were applied onto wheat seedlings using an automated booth sprayer to run-off. All sprayed plants were allowed to air dry prior to further handling. All fungicides were evaluated using the aforementioned method for their activity vs. all target diseases. Wheat leaf blotch and brown rust activity were also evaluated using track spray applications, in which case the fungicides were formulated as EC formulations, containing 0.1% Trycol 5941 in the spray solutions. Wheat plants (variety Yuma) were grown from seed in a greenhouse in 50% mineral soil/50% soil-less Metro mix until the first leaf was fully emerged, with 7-10 seedlings per pot. These plants were inoculated with an aqueous spore suspension of Septoria tritici either prior to or after fungicide treatments. After inoculation the plants were kept in 100% relative humidity (one day in a dark dew chamber followed by two to three days in a lighted dew chamber at 20° C.) to permit spores to germinate and infect the leaf. The plants were then transferred to a greenhouse set at 20° C. for disease to develop. When disease symptoms were fully expressed on the l^st leaves of untreated plants, infection levels were assessed on a scale of 0 to 100 percent disease severity. Percent disease control was calculated using the ratio of disease severity on treated plants relative to untreated plants. Evaluation of Fungicidal Activity: Wheat Brown Rust (Puccinia triticina; Synonym: Puccinia recondite f sp. tritici; Bayer code PUCCRT) Wheat plants (variety Yuma) were grown from seed in a greenhouse in 50% mineral soil/50% soil-less Metro mix until the first leaf was fully emerged, with 7-10 seedlings per pot. These plants were inoculated with an aqueous spore suspension of Puccinia triticina either prior to or after fungicide treatments. After inoculation the plants were kept in a dark dew room at 22° C. with 100% relative humidity overnight to permit spores to germinate and infect the leaf. The plants were then transferred to a greenhouse set at 24° C. for disease to develop. Fungicide formulation, application and disease assessment followed the procedures as described in the Example A.

[3] = 24 h, 1 Day Protectant, 100 ppm (high volume), wheat, read-out: SEPTTR 1DP disease control rating
[4] = 72 h, 3 Day Curative, 100 ppm (high volume), wheat, read-out: SEPTTR 3DC disease control rating
[5] = 24 h, 1 Day Protectant, read-out: PUCCRT 1DP disease control rating
[6] = 72 h, 3 Day Curative, read-out: PUCCRT 3DC disease control rating
[7] = 24 h, 1 Day Protectant, wheat, read-out: SEPTTR 1DP disease control rating
[8] = 72 h, 3 Day Curative, wheat, read-out: SEPTTR 3DC disease control rating

SMILES: CCCC[C@H]1[C@H](C)OC(=O)[C@@H](N)CCC[C@@H]1OCC1CC1.Cl
- melting point: 223 to 224 °C

SMILES: CCCC[C@H]1[C@H](C)OC(=O)[C@@H](N)CCC[C@@H]1OCCCC(F)(F)F.Cl
- melting point: 196 to 198 °C

SMILES: COc1ccnc(C(=O)N[C@H]2CCC[C@H](Oc3ccccc3)[C@@H](CCC(C)C)[C@H](C)OC2=O)c1O [Compound 8]
- pest or weed control at 100 ppm [1, 3]: > 70%
- pest or weed control at 100 ppm [1, 4]: > 70%
- pest or weed control at 100 ppm [2, 5]: > 70%
- pest or weed control at 100 ppm [2, 6]: > 70%
- melting point: 55 to 60 °C

SMILES: COc1ccnc(C(=O)N[C@H]2CCC[C@H](OCc3ccccc3)[C@@H](CCC(C)C)[C@H](C)OC2=O)c1OC(C)=O [Compound 17]
- pest or weed control at 121.5 g/ha [1, 7]: > 70%
- pest or weed control at 121.5 g/ha [1, 8]: > 70%
- pest or weed control at 121.5 g/ha [2, 5]: > 70%
- pest or weed control at 121.5 g/ha [2, 6]: > 70%
- melting point: 58 to 62 °C

SMILES: CCCO[C@H]1CCC[C@H](NC(=O)c2nccc(OC)c2O)C(=O)O[C@@H](C)[C@@H]1CCC(C)C [Compound 31, 3-hydroxy-N-((3S,7S,8S,9S)-8-isopentyl-9-methyl-2-oxo-7-propoxyoxonan-3-yl)-4-methoxypicolinamide]
- pest or weed control at 100 ppm ([1]; 24 h, read-out: SEPTTR 1DP disease control rating): < 70%
- pest or weed control at 100 ppm ([1]; 72 h, read-out: SEPTTR 3DC disease control rating): < 70%
- pest or weed control at 100 ppm [2, 5]: > 70%
- pest or weed control at 100 ppm [2, 6]: < 70%
- melting point: 45 to 49 °C

SMILES: CCCO[C@H]1CCC[C@H](NC(=O)c2nccc(OC)c2O)C(=O)O[C@@H](C)[C@@H]1Cc1ccccc1 [Compound 49]
- pest or weed control at 100 ppm [1, 3]: > 70%
- pest or weed control at 100 ppm [1, 4]: > 70%
- pest or weed control at 100 ppm [2, 5]: > 70%
- pest or weed control at 100 ppm [2, 6]: > 70%
- melting point: 59 to 64 °C

SMILES: CC(C)CC[C@H]1[C@H](C)OC(=O)[C@@H](NC(=O)OC(C)(C)C)CCC[C@@H]1OCc1ccccc1 [Compound 51]
- melting point: 97 to 100 °C

SMILES: COc1ccnc(C(=O)N[C@H]2CCC[C@H](Oc3ccc(C)cc3)[C@@H](Cc3ccccc3)[C@H](C)OC2=O)c1O [Compound 60]
- pest or weed control at 100 ppm [1, 3]: > 70%
- pest or weed control at 100 ppm [1, 4]: > 70%
- pest or weed control at 100 ppm [2, 5]: > 70%
- pest or weed control at 100 ppm [2, 6]: > 70%
- melting point: 68 to 71 °C

SMILES: CCCC[C@H]1[C@H](C)OC(=O)[C@@H](NC(=O)c2nccc(OC)c2OCOC(=O)COCC)CCC[C@@H]1OC(=O)C(C)C [Compound 71, (2S,3S,4S,8S)-3-butyl-8-(3-((2-ethoxyacetoxyl)methoxy)-4-methoxypicolinamido)-2-methyl-9-oxooxonan-4-yl isobutyrate]
- pest or weed control at 121.5 g/ha [1, 7]: > 70%
- pest or weed control at 121.5 g/ha [1, 8]: > 70%
- pest or weed control at 121.5 g/ha [2, 5]: > 70%
- pest or weed control at 121.5 g/ha [2, 6]: > 70%

SMILES: COc1ccnc(C(=O)N[C@H]2CCC[C@H](OCC(C)C)[C@@H](Cc3ccccc3)[C@H](C)OC2=O)c1OC(C)=O [Compound 72]
- pest or weed control at 121.5 g/ha [1, 7]: > 70%
- pest or weed control at 121.5 g/ha [1, 8]: > 70%
- pest or weed control at 121.5 g/ha [2, 5]: > 70%
- pest or weed control at 121.5 g/ha [2, 6]: > 70%

SMILES: COc1ccnc(C(=O)N[C@H]2CCC[C@H](OCC3CC3)[C@@H](Cc3ccccc3)[C@H](C)OC2=O)c1OC(C)=O [Compound 76]
- pest or weed control at 100 ppm [1, 3]: > 70%
- pest or weed control at 100 ppm [1, 4]: > 70%
- pest or weed control at 100 ppm [2, 5]: > 70%
- pest or weed control at 100 ppm [2, 6]: > 70%
